Broadly, the EC50 is the concentration at which the effect is half-maximal.

T1 sequence (P41594 21-1212): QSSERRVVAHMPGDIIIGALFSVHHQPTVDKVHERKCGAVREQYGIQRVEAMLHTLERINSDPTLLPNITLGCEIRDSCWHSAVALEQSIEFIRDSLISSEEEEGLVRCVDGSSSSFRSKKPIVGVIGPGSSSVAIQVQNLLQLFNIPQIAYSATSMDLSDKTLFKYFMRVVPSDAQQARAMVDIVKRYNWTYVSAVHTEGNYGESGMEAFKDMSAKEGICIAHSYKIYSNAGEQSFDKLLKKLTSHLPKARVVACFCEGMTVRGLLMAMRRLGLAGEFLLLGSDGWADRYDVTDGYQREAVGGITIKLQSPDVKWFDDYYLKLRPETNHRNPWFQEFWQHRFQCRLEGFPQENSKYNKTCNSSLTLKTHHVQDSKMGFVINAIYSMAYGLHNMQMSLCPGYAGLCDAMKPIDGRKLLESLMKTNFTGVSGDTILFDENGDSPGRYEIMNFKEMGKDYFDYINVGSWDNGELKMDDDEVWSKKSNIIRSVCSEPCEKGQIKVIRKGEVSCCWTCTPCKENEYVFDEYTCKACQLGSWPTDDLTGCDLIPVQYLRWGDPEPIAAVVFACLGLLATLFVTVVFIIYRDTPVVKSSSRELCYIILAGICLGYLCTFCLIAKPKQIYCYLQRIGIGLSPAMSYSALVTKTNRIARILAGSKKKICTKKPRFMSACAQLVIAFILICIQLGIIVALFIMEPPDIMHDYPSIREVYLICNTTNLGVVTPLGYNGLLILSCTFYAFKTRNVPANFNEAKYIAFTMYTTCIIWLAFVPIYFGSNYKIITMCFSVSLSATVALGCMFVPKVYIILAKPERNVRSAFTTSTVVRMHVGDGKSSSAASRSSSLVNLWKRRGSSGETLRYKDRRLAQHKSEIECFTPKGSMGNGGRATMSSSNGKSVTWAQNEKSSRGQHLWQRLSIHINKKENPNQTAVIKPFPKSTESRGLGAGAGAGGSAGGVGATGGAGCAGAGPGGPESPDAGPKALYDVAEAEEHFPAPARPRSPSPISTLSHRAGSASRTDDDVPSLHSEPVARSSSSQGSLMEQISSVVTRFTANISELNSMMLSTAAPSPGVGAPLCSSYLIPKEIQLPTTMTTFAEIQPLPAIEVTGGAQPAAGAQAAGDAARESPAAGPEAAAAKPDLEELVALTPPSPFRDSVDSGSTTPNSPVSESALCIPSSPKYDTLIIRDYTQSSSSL

The first assay has as its target T1, human mGluR5 (Homo sapiens, UniProt P41594).
T1 construct: expressed in transfected cells; host or cells: HEK293 cells stably expressing rat GLAST (EAAT1), stably transfected with pcDNAzeo3.1 carrying synthetic human mGluR5 DNA; zeocin-selected single clones
Nature of the assay: In vitro cell-based FLIPR calcium assay for positive modulation of the activation of mGluR5 by glutamate (PAM EC50). As to conditions: HEK293/GLAST cells expressing recombinant human mGluR5; FLIPR calcium signal; glutamate added at its EC20; read-out: mGluR5 PAM EC50. In outline: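 HEK293/GLAST cells stably expressing mGluR5 were loaded with calcium-sensitive dye (25 °C, 45–60 min) in HBSS/20 mM HEPES. Test compounds were assayed in buffer containing glutamate at that day's EC20, with FLIPR fluorescence recorded. Controls contained 0.3% DMSO without compound.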
As to `CC1(C)CNc2nc3cc(C#Cc4ccccn4)ccc3c(=O)n2C1` [Example 5.26, 3,3-dimethyl-9-(pyridin-2-ylethynyl)-3,4-dihydro-1H-pyrimido[2,1-b]quinazolin-6(2H)-one], the EC50 is < 10 nM.
Same read-out and setting: under `COCC1CCc2nc3cc(C#Cc4cccc(F)c4)ccc3c(=O)n2C1` (stereo not drawn) [Example 4.33, 3-((3-fluorophenyl)ethynyl)-8-(methoxymethyl)-8,9-dihydro-6H-pyrido[2,1-b]quinazolin-11(7H)-one] stands < 10 nM; under `Cc1cnc(NC(=O)c2ccc3c(=O)n4c(nc3c2)C(C)CCCCC4)s1` (stereo not drawn) [Example 25.3, 6-methyl-N-(5-methylthiazol-2-yl)-13-oxo-7,8,9,10,11,13-hexahydro-6H-azocino[2,1-b]quinazoline-3-carboxamide], 10 to 30 nM; under `CNC(=O)CN1CCc2nc3cc(C#Cc4cccc(F)c4)ccc3c(=O)n2CC1` [Example 8.15, 2-(8-((3-fluorophenyl)ethynyl)-11-oxo-1,2,4,5-tetrahydro-[1,4]diazepino[7,1-b]quinazolin-3(11H)-yl)-N-methylacetamide], 100 to 300 nM.
On the same count and under the same terms, the same measure for `O=C1CCc2nc3cc(C#Cc4cccc(F)c4)ccc3c(=O)n2C1` [Example 4.22, 3-((3-fluorophenyl)ethynyl)-6H-pyrido[2,1-b]quinazoline-8,11(7H,9H)-dione]: 30 to 100 nM; for `O=c1c2ccc(C#Cc3cccc(F)c3)cc2nc2n1CCCC2Cc1ccccc1` (stereo not drawn) [Example 4.9, 6-benzyl-3-((3-fluorophenyl)ethynyl)-8,9-dihydro-6H-pyrido[2,1-b]quinazolin-11(7H)-one]: 100 to 300 nM.
With `CC1CCc2nc3cc(/C=C/c4ccccn4)ccc3c(=O)n2CC1` (stereo not drawn) [Example 20.3, (E)-8-methyl-3-(2-(pyridin-2-yl)vinyl)-7,8,9,10-tetrahydroazepino[2,1-b]quinazolin-12(6H)-one], the EC50 lay in the range of 100 to 300 nM.
As for `C=CCN1CCc2nc3cc(C#Cc4cccc(F)c4)ccc3c(=O)n2CC1` [Example 8.12, 3-allyl-8-((3-fluorophenyl)ethynyl)-2,3,4,5-tetrahydro-[1,4]diazepino[7,1-b]quinazolin-11(1H)-one], the EC50 was 10 to 30 nM.
Same read-out and setting: the same measure for `CC1Cc2nc3cc(C#Cc4ccccn4)cnc3c(=O)n2C1` (stereo not drawn) [Example 11.13, 7-methyl-3-(pyridin-2-ylethynyl)-7,8-dihydropyrido[3,2-d]pyrrolo[1,2-a]pyrimidin-10(6H)-one]: 300 to 1000 nM; for `O=c1c2ccc(C#Cc3ccccn3)cc2nc2n1CCC1(CC2)CC1` [Example 6.51, 3-(pyridin-2-ylethynyl)-9,10-dihydro-6H-spiro[azepino[2,1-b]quinazoline-8,1′-cyclopropan]-12(7H)-one]: < 10 nM; for `CN1CCn2c(nc3cc(C#Cc4ccc(F)cc4)ccc3c2=O)C1` [Example 5.3, 9-((4-fluorophenyl)ethynyl)-2-methyl-3,4-dihydro-1H-pyrazino[2,1-b]quinazolin-6(2H)-one]: 10 to 30 nM.
For `CC(C)N1CCc2nc3cc(C#Cc4ccc(F)cc4)ccc3c(=O)n2CC1` [Example 8.3, 8-((4-fluorophenyl)ethynyl)-3-isopropyl-2,3,4,5-tetrahydro-[1,4]diazepino[7,1-b]quinazolin-11(1H)-one], the EC50 lay within 100 to 300 nM.
For the compound `O=c1c2ccc(C#Cc3cccc(F)c3)cc2ncn1C1CCCC1` [Example 1.11, 3-cyclopentyl-7-((3-fluorophenyl)ethynyl)quinazolin-4(3H)-one], the EC50 is 10 to 30 nM.
The same measure, in the same setting: the same measure for `C=CCC1CCCn2c1nc1cc(C#Cc3cccc(F)c3)ccc1c2=O` (stereo not drawn) [Example 4.7, 6-allyl-3-((3-fluorophenyl)ethynyl)-8,9-dihydro-6H-pyrido[2,1-b]quinazolin-11(7H)-one]: 10 to 30 nM.
On to `CC1(O)CCc2nc3cc(C#Cc4ccccn4)ccc3c(=O)n2CC1` (stereo not drawn) [Example 6.49, 8-hydroxy-8-methyl-3-(pyridin-2-ylethynyl)-7,8,9,10-tetrahydroazepino[2,1-b]quinazolin-12(6H)-one], for which the EC50 was in the range of 100 to 300 nM.
As to `CCC(C)N1CCn2c(nc3cc(C#Cc4cccc(F)c4)ccc3c2=O)C1` (stereo not drawn) [Example 5.6, 2-(sec-butyl)-9-((3-fluorophenyl)ethynyl)-3,4-dihydro-1H-pyrazino[2,1-b]quinazolin-6(2H)-one], the EC50 lay in the range of 100 to 300 nM.
With `O=C1CCc2nc3cc(C#Cc4cccc(F)c4)ccc3c(=O)n2CC1` [Example 6.14, 3-((3-fluorophenyl)ethynyl)-6,7,9,10-tetrahydroazepino[2,1-b]quinazoline-8,12-dione], the EC50 was in the range of 10 to 30 nM.
As to `COC1CCc2nc3cc(C#Cc4ccccn4)ccc3c(=O)n2C1` (stereo not drawn) [Example 4.26, 8-methoxy-3-(pyridin-2-ylethynyl)-8,9-dihydro-6H-pyrido[2,1-b]quinazolin-11(7H)-one], the EC50 was in the range of 30 to 100 nM.
Regarding `O=c1c2ccc(C#Cc3ccccn3)cc2nc2n1CCC(O)CC2` (stereo not drawn) [Example 6.16, 8-hydroxy-3-(pyridin-2-ylethynyl)-7,8,9,10-tetrahydroazepino[2,1-b]quinazolin-12(6H)-one], the EC50 is 30 to 100 nM.
Still for that read-out and setting: the same measure for `CN1CCc2nc3cc(C#Cc4cccc(F)c4)ccc3c(=O)n2CC1` [Example 8.7, 8-((3-fluorophenyl)ethynyl)-3-methyl-2,3,4,5-tetrahydro-[1,4]diazepino[7,1-b]quinazolin-11(1H)-one]: 30 to 100 nM; for `COCCN1CCc2nc3cc(C#Cc4cccc(F)c4)ccc3c(=O)n2CC1` [Example 8.10, 8-((3-fluorophenyl)ethynyl)-3-(2-methoxyethyl)-2,3,4,5-tetrahydro-[1,4]diazepino[7,1-b]quinazolin-11(1H)-one]: 100 to 300 nM; for `CCC1CCCn2c1nc1cc(C#Cc3cccc(F)c3)ccc1c2=O` (stereo not drawn) [Example 4.8, 6-ethyl-3-((3-fluorophenyl)ethynyl)-8,9-dihydro-6H-pyrido[2,1-b]quinazolin-11(7H)-one]: 100 to 300 nM.
`O=c1c2ccc(C#Cc3cccc(F)c3)cc2nc2n1CCC1(CC2)OCCO1` [Example 6.34, 3-((3-fluorophenyl)ethynyl)-9,10-dihydro-6H-spiro[azepino[2,1-b]quinazoline-8,2′-[1,3]dioxolan]-12(7H)-one]: the EC50 is 10 to 30 nM.
As to `Cc1ccsc1C#Cc1ccc2c(=O)n3c(nc2c1)CCC1(CC3)OCCO1` [Example 7.58], the half-maximal effective concentration (EC50) lay in the range of 300 to 1000 nM.
For the compound `CCOCc1cnc2cc(C#Cc3cccc(F)c3)ccn2c1=O` [Example 13.8, 3-(ethoxymethyl)-8-((3-fluorophenyl)ethynyl)-4H-pyrido[1,2-a]pyrimidin-4-one], the EC50 was 30 to 100 nM.
On to `CC1(C)CCc2nc3cc(C#Cc4ccccn4)ccc3c(=O)n2C1` [Example 4.16, 8,8-dimethyl-3-(pyridin-2-ylethynyl)-8,9-dihydro-6H-pyrido[2,1-b]quinazolin-11(7H)-one], for which the EC50 is < 10 nM.
For `Fc1ccc(C#Cc2ccc3c(c2)N=C2CCCCCN2C3)cc1` [Example 19.1, 3-((4-fluorophenyl)ethynyl)-6,7,8,9,10,12-hexahydroazepino[2,1-b]quinazoline], the EC50 lay within 30 to 100 nM.
As to `CC1(C)CCn2c(nc3cc(/C=C/c4ccccc4F)ccc3c2=O)C1` [Example 20.6, (E)-3-(2-fluorostyryl)-7,7-dimethyl-8,9-dihydro-6H-pyrido[2,1-b]quinazolin-11(7H)-one], the EC50 was in the range of 30 to 100 nM.
In the case of `O=c1c2ccc(C#Cc3ccccn3)cc2nc2n1CC1CCCN1C2` (stereo not drawn) [Example 5.22, 8-(pyridin-2-ylethynyl)-2,3,13,13a-tetrahydro-1H-pyrrolo[1′,2′:4,5]pyrazino[2,1-b]quinazolin-11(5H)-one], the EC50 lay within 30 to 100 nM.
Regarding `Cc1cccc(C#Cc2ccc3c(=O)n4c(nc3c2)CCC2(CC4)OCCO2)c1` [Example 7.31], the EC50 lay in the range of 100 to 300 nM.
The same measure, in the same setting: the same measure for `CN(C)Cc1nc2cc(C#Cc3cccc(F)c3)ccc2c(=O)n1C` [Example 2.7, 2-((dimethylamino)methyl)-7-((3-fluorophenyl)ethynyl)-3-methylquinazolin-4(3H)-one]: 30 to 100 nM.
For the compound `Cn1cnc2cc(C#Cc3nccs3)ccc2c1=O` [Example 1.5, 3-methyl-7-(thiazol-2-ylethynyl)quinazolin-4(3H)-one], the EC50 was 300 to 1000 nM.
On the same count and under the same terms, the same measure for `Cc1cnc(NC(=O)c2ccn3c(=O)c4c(nc3c2)CCCCCC4)s1` [Example 28.1, N-(5-methylthiazol-2-yl)-12-oxo-7,8,9,10,11,12-hexahydro-6H-cycloocta[d]pyrido[1,2-a]pyrimidine-3-carboxamide]: < 10 nM; for `Cc1ccnc(C#Cc2ccc3c(=O)n4c(nc3c2)CCC2(CC4)OCCO2)c1` [Example 7.48]: 30 to 100 nM.
The same measure, in the same setting: under `CCc1ccc(C#Cc2ccc3c(=O)n4c(nc3c2)CCCCC4)cc1` [Example 6.3, 3-((4-ethylphenyl)ethynyl)-7,8,9,10-tetrahydroazepino[2,1-b]quinazolin-12(6H)-one] stands 100 to 300 nM; under `CC1CCc2nc3cc(C#Cc4ccccn4)cnc3c(=O)n2CC1` (single isomer, unassigned) [11.9a/11.9b slower moving enantiomer (fraction 2), 8-methyl-3-(pyridin-2-ylethynyl)-7,8,9,10-tetrahydropyrido[3′,2′:4,5]pyrimido[1,2-a]azepin-12(6H)-one], 10 to 30 nM; under `O=c1c2ccc(C#Cc3cccc(F)c3)cc2nc2n1CCC=C2` [Example 4.20, 3-((3-fluorophenyl)ethynyl)-8H-pyrido[2,1-b]quinazolin-11(9H)-one], 10 to 30 nM.
For the compound `Cn1cc(C#Cc2ccc3c(=O)n4c(nc3c2)CCC2(CC4)OCCO2)cn1` [Example 7.69], the EC50 fell in the range of 100 to 300 nM.

Staying with this assay, now noted: mGluR5 PAM EC50, HEK293/GLAST cells expressing recombinant human mGluR5; FLIPR calcium signal; glutamate added at its EC20.
On to `CC1(C)CCc2nc3cc(C#Cc4ccccn4)ccn3c(=O)c2C1` [Example 15.4, 2,2-dimethyl-7-(pyridin-2-ylethynyl)-3,4-dihydro-1H-Pyrido[2,1-b]quinazolin-11(2H)-one], for which the EC50 was < 10 nM.

(Values after patent US10077243B2, “Compounds for treating disorders mediated by metabotropic glutamate receptor 5, and methods of use thereof” (Sunovion Pharmaceuticals Inc., priority 2009, dated 2018).)
